Laboratory results reported in ChEMBL document CHEMBL5543142, “Discovery of YFJ-36: Design, Synthesis, and Antibacterial Activities of Catechol-Conjugated β-Lactams against Gram-Negative Bacteria” (J Med Chem, 2024).

Assays:
Format in all cases: functional
Conditions in all cases: time 18-20 hrs
Acinetobacter baumannii [1] = assay: Antibacterial activity against OXA-23 producing multidrug-resistant Acinetobacter baumannii clinical isolate 15-4 assessed as inhibition of bacterial growth incubated for 18 to 20 hrs by two fold serial dilution assay
Klebsiella pneumoniae [2] = assay: Antibacterial activity against KPC-2 producing multidrug-resistant Klebsiella pneumoniae clinical isolate 15-2 assessed as inhibition of bacterial growth incubated for 18 to 20 hrs by two fold serial dilution assay
Acinetobacter baumannii [3] = assay: Antibacterial activity against OXA-23 producing multidrug-resistant Acinetobacter baumannii clinical isolate 15-5 assessed as inhibition of bacterial growth incubated for 18 to 20 hrs by two fold serial dilution assay
Escherichia coli [4] = assay: Antibacterial activity against ESBL-producing multidrug-resistant Escherichia coli clinical isolate 14-4 assessed as inhibition of bacterial growth incubated for 18 to 20 hrs by two fold serial dilution assay
Escherichia coli [5] = assay: Antibacterial activity against Escherichia coli ATCC35218 assessed as inhibition of bacterial growth incubated for 18 to 20 hrs by two fold serial dilution assay
Acinetobacter baumannii [6] = assay: Antibacterial activity against OXA-23 producing multidrug-resistant Acinetobacter baumannii clinical isolate 15-2 assessed as inhibition of bacterial growth incubated for 18 to 20 hrs by two fold serial dilution assay
Klebsiella pneumoniae [7] = assay: Antibacterial activity against KPC-2 producing multidrug-resistant Klebsiella pneumoniae clinical isolate 15-1 assessed as inhibition of bacterial growth incubated for 18 to 20 hrs by two fold serial dilution assay
Escherichia coli [8] = assay: Antibacterial activity against ESBL-producing multidrug-resistant Escherichia coli clinical isolate 14-2 assessed as inhibition of bacterial growth incubated for 18 to 20 hrs by two fold serial dilution assay
Acinetobacter baumannii [9] = assay: Antibacterial activity against OXA-23 producing multidrug-resistant Acinetobacter baumannii clinical isolate 15-3 assessed as inhibition of bacterial growth incubated for 18 to 20 hrs by two fold serial dilution assay
Acinetobacter baumannii [10] = assay: Antibacterial activity against OXA-23 producing multidrug-resistant Acinetobacter baumannii clinical isolate 15-1 assessed as inhibition of bacterial growth incubated for 18 to 20 hrs by two fold serial dilution assay
Pseudomonas aeruginosa [11] = assay: Antibacterial activity against IMP-4 producing multidrug-resistant Pseudomonas aeruginosa clinical isolate 17-13 assessed as inhibition of bacterial growth incubated for 18 to 20 hrs by two fold serial dilution assay
Klebsiella pneumoniae [12] = assay: Antibacterial activity against KPC-2 producing multidrug-resistant Klebsiella pneumoniae clinical isolate 15-5 assessed as inhibition of bacterial growth incubated for 18 to 20 hrs by two fold serial dilution assay
Klebsiella pneumoniae [13] = assay: Antibacterial activity against KPC-2 producing multidrug-resistant Klebsiella pneumoniae clinical isolate 15-3 assessed as inhibition of bacterial growth incubated for 18 to 20 hrs by two fold serial dilution assay
Escherichia coli [14] = assay: Antibacterial activity against ESBL-producing multidrug-resistant Escherichia coli clinical isolate 14-1 assessed as inhibition of bacterial growth incubated for 18 to 20 hrs by two fold serial dilution assay
Pseudomonas aeruginosa [15] = assay: Antibacterial activity against IMP-4 producing multidrug-resistant Pseudomonas aeruginosa clinical isolate 19-17 assessed as inhibition of bacterial growth incubated for 18 to 20 hrs by two fold serial dilution assay
Pseudomonas aeruginosa [16] = assay: Antibacterial activity against IMP-4 producing multidrug-resistant Pseudomonas aeruginosa clinical isolate 17-1 assessed as inhibition of bacterial growth incubated for 18 to 20 hrs by two fold serial dilution assay
Pseudomonas aeruginosa [17] = assay: Antibacterial activity against IMP-4 producing multidrug-resistant Pseudomonas aeruginosa clinical isolate 15-4 assessed as inhibition of bacterial growth incubated for 18 to 20 hrs by two fold serial dilution assay
Pseudomonas aeruginosa [18] = assay: Antibacterial activity against IMP-4 producing multidrug-resistant Pseudomonas aeruginosa clinical isolate 15-1 assessed as inhibition of bacterial growth incubated for 18 to 20 hrs by two fold serial dilution assay
Pseudomonas aeruginosa [19] = assay: Antibacterial activity against IMP-4 producing multidrug-resistant Pseudomonas aeruginosa clinical isolate 15-5 assessed as inhibition of bacterial growth incubated for 18 to 20 hrs by two fold serial dilution assay
Pseudomonas aeruginosa [20] = assay: Antibacterial activity against Pseudomonas aeruginosa ATCC 27853 assessed as inhibition of bacterial growth incubated for 18 to 20 hrs by two fold serial dilution assay
Pseudomonas aeruginosa [21] = assay: Antibacterial activity against IMP-4 producing multidrug-resistant Pseudomonas aeruginosa clinical isolate 19-1 assessed as inhibition of bacterial growth incubated for 18 to 20 hrs by two fold serial dilution assay
Acinetobacter baumannii [22] = assay: Antibacterial activity against OXA-23 producing multidrug-resistant Acinetobacter baumannii clinical isolate 17-2 assessed as inhibition of bacterial growth incubated for 18 to 20 hrs by two fold serial dilution assay
Pseudomonas aeruginosa [23] = assay: Antibacterial activity against IMP-4 producing multidrug-resistant Pseudomonas aeruginosa clinical isolate 19-5 assessed as inhibition of bacterial growth incubated for 18 to 20 hrs by two fold serial dilution assay

SMILES | MIC (Acinetobacter baumannii [1]) [µg/mL] | MIC (Klebsiella pneumoniae [2]) [µg/mL] | MIC (Acinetobacter baumannii [3]) [µg/mL] | MIC (Escherichia coli [4]) [µg/mL] | MIC (Escherichia coli [5]) [µg/mL] | MIC (Acinetobacter baumannii [6]) [µg/mL] | MIC (Klebsiella pneumoniae [7]) [µg/mL] | MIC (Escherichia coli [8]) [µg/mL] | MIC (Acinetobacter baumannii [9]) [µg/mL] | MIC (Acinetobacter baumannii [10]) [µg/mL] | MIC (Pseudomonas aeruginosa [11]) [µg/mL] | MIC (Klebsiella pneumoniae [12]) [µg/mL] | MIC (Klebsiella pneumoniae [13]) [µg/mL] | MIC (Escherichia coli [14]) [µg/mL] | MIC (Pseudomonas aeruginosa [15]) [µg/mL] | MIC (Pseudomonas aeruginosa [16]) [µg/mL] | MIC (Pseudomonas aeruginosa [17]) [µg/mL] | MIC (Pseudomonas aeruginosa [18]) [µg/mL] | MIC (Pseudomonas aeruginosa [19]) [µg/mL] | MIC (Pseudomonas aeruginosa [20]) [µg/mL] | other results
Nc1nc(/C(=N/OC(C(=O)O)C2CCSCC2)C(=O)N[C@@H]2C(=O)N3C(C(=O)O)=C(CSCCNC(=O)c4ccc(O)c(O)c4Cl)CS[C@H]23)cs1.O=C(O)C(F)(F)F (stereo partly specified) | 8 | 4 | 4 | 0.25 | 0.25 | 8 | 2 | 0.5 | 4 | 4 | 1 | 8 | 4 | 0.125 | 0.5 |  |  |  |  |  | 
C[C@@](O/N=C(\C(=O)N[C@@H]1C(=O)N2C(C(=O)O)=C(CSCCNC(=O)c3ccc(O)c(O)c3Cl)CS[C@H]12)c1csc(N)n1)(C(=O)O)C(F)(F)F.O=C(O)C(F)(F)F | 16 | 1 | 16 | 0.5 | 0.06 | 32 | 1 | 0.5 | 32 | 16 | 0.125 | 1 | 2 | 0.125 | 0.5 | 4 |  |  |  |  | 
CC(C)(O/N=C(\C(=O)N[C@@H]1C(=O)N2C(C(=O)O)=C(CSCCCNC(=O)c3ccc(O)c(O)c3Cl)CS[C@H]12)c1csc(N)n1)C(=O)O.O=C(O)C(F)(F)F | 64 | 4 | 64 | 16 |  | 64 | 16 | 2 | 32 | 32 |  | 4 | 8 | 0.125 |  |  | 2 | 1 | 4 | 4 | 
Nc1nc(/C(=N/OC(C(=O)O)C2CCC2)C(=O)N[C@@H]2C(=O)N3C(C(=O)O)=C(CSCCNC(=O)c4ccc(O)c(O)c4Cl)CS[C@H]23)cs1.O=C(O)C(F)(F)F (stereo partly specified) | 32 | 4 | 64 | 0.25 | 0.125 | 32 | 8 | 4 | 16 | 32 | 1 | 4 | 16 | 0.5 | 0.5 | 8 |  |  |  |  | 
Nc1nc(/C(=N/OC(C(=O)O)C2CCS(=O)(=O)CC2)C(=O)N[C@@H]2C(=O)N3C(C(=O)O)=C(CSCCNC(=O)c4ccc(O)c(O)c4Cl)CS[C@H]23)cs1.O=C(O)C(F)(F)F (stereo partly specified) | 4 | 2 | 4 | 0.5 |  | 2 | 2 | 1 | 2 | 2 | 1 | 0.5 | 2 | 1 | 2 |  |  |  |  |  | 
CC(C)(O/N=C(\C(=O)N[C@@H]1C(=O)N2C(C(=O)O)=C(CSCCOCCNC(=O)c3ccc(O)c(O)c3Cl)CS[C@H]12)c1csc(N)n1)C(=O)O.O=C(O)C(F)(F)F | 64 | 4 | 32 | 32 |  | 32 | 8 | 2 | 32 | 32 |  | 4 | 8 | 0.25 |  |  | 1 | 1 | 2 | 4 | 
CC(C)(O/N=C(\C(=O)N[C@@H]1C(=O)N2C(C(=O)O)=C(CS[C@@H]3C[C@H]4CC[C@@H](C3)N4C(=O)c3ccc(O)c(O)c3Cl)CS[C@H]12)c1csc(N)n1)C(=O)O.O=C(O)C(F)(F)F | > 64 | 1 | > 64 | 16 |  | 64 | 2 | 16 | 64 | 64 |  | 1 | 64 | 0.25 |  |  | 16 | 16 | 16 | 2 | 
Nc1nc(/C(=N/OC(C(=O)O)C2CCOCC2)C(=O)N[C@@H]2C(=O)N3C(C(=O)O)=C(CSCCNC(=O)c4ccc(O)c(O)c4Cl)CS[C@H]23)cs1.O=C(O)C(F)(F)F (stereo partly specified) | 32 | 16 | 16 | 4 | 4 | 32 | 16 | 16 | 16 | 32 | 1 | 16 | 8 | 8 | 8 |  |  |  |  |  | 
CC(C)(O/N=C(\C(=O)N[C@@H]1C(=O)N2C(C(=O)O)=C(CSCCNC(=O)c3ccc(O)c(O)c3Cl)CS[C@H]12)c1csc(N)n1)C(=O)O.O=C(O)C(F)(F)F | 32 | 4 | 64 | 1 |  | 32 | 8 | 2 | 32 | 32 |  | 2 | 8 | 0.25 |  |  | 4 | 2 | 4 | 0.5 | 
Nc1nc(/C(=N/OC(C(=O)O)C2CC2)C(=O)N[C@@H]2C(=O)N3C(C(=O)O)=C(CSCCNC(=O)c4ccc(O)c(O)c4Cl)CS[C@H]23)cs1.O=C(O)C(F)(F)F (stereo partly specified) | 64 | 4 | 64 | 0.5 | 0.25 | 64 | 16 | 4 | 64 | 32 | 1 | 4 | 64 | 0.5 | 1 | 1 |  |  |  |  | 
CC(C)(O/N=C(\C(=O)N[C@@H]1C(=O)N2C(C(=O)O)=C(CS[C@H]3CC[C@@H](NC(=O)c4ccc(O)c(O)c4Cl)CC3)CS[C@H]12)c1csc(N)n1)C(=O)O.O=C(O)C(F)(F)F | 32 | 4 | 32 | 1 |  | 32 | 4 | 4 | 32 | 32 |  | 8 | 4 | 0.125 |  |  | 1 | 1 | 2 | 8 | 
Nc1nc(/C(=N/OC(C(=O)O)C2CCCC2)C(=O)N[C@@H]2C(=O)N3C(C(=O)O)=C(CSCCNC(=O)c4ccc(O)c(O)c4Cl)CS[C@H]23)cs1.O=C(O)C(F)(F)F (stereo partly specified) | 16 | 2 | 32 | 0.25 | 0.25 | 16 | 2 | 2 | 16 | 32 | 8 | 2 | 4 | 0.25 | 1 | 1 |  |  |  |  | 
Cc1sc(N)nc1/C(=N/OC(C(=O)O)C1CCC(F)(F)CC1)C(=O)N[C@@H]1C(=O)N2C(C(=O)O)=C(CSCCNC(=O)c3ccc(O)c(O)c3Cl)CS[C@H]12.O=C(O)C(F)(F)F (stereo partly specified) | 4 | 4 | 2 | 0.5 | 0.25 | 2 | 2 | 1 | 4 | 4 | 0.25 | 2 | 8 | 0.5 | 0.25 |  |  |  |  |  | MIC (Pseudomonas aeruginosa [21]): 8 µg/mL; MIC (Acinetobacter baumannii [22]): 0.125 µg/mL; MIC (Pseudomonas aeruginosa [23]): 1 µg/mL
